From patent publication US11572399B2, “Long-acting GIP peptide analogues” (University of Copenhagen, priority 2017, dated 2023) come the findings set out here.

As a reminder, the Emax is the maximal effect, on the per cent scale that the assay sets. As a reminder, the EC50 is the concentration needed to bring the measured effect to its halfway point.

SMILES strings stand for the structures. Read-outs that look alike come from different tables or passages of the source.

The target of data set [1] is T1, human GIP receptor (Homo sapiens, UniProt P48546).
T1 construct: host or cells: COS-7, transient transfection (calcium phosphate), cDNA in pCMV-Script
T1 sequence (P48546 22-466): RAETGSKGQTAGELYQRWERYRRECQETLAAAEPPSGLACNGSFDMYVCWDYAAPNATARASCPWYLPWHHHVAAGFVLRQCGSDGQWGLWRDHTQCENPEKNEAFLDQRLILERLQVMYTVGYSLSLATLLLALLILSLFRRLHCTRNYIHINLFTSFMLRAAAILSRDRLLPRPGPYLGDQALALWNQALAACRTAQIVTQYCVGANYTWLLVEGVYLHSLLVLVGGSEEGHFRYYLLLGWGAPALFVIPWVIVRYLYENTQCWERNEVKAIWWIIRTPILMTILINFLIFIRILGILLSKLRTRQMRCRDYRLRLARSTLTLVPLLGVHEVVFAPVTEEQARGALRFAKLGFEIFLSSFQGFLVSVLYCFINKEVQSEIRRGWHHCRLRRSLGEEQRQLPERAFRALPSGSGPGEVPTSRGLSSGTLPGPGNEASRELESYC
As to the kind of experiment: cAMP accumulation assay, agonism (ligand alone). The data set is classed as cell-based. As to conditions: COS-7 cells, Table 1; for Emax: COS-7, intrinsic cAMP activity; for cAMP agonism Emax: intrinsic cAMP activity.

The target of data set [2] is T1, human GIP receptor. As to the kind of experiment: 125I-human GIP competition binding assay, in the presence and absence of 2% HSA.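 For all read-outs here: nonspecific binding taken as radioligand bound to untransfected cells, IC50 obtained from nonlinear regression fits.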 As to conditions: for Fold change HSA (2%)/Casein (0.1%): IC50 (plus HSA)/IC50 (minus HSA).
Setting [3] is: Table 3b, initial data, read-out: Binding IC50.
Where [4] appears, read: heterologous competition binding, transiently transfected COS-7 cells expressing the human GIP receptor, read-out: Binding.
Where [5] appears, read: binding in 0.1% casein (absence of HSA), log value, read-out: logIC50 0.1% casein (converted).

For the molecule `CCCCCCCCCCCCCCCC(=O)NCCCC[C@H](NC(=O)[C@H](CC(=O)O)NC(=O)[C@H](CCSC)NC(=O)[C@H](C)NC(=O)[C@@H](NC(=O)[C@H](CO)NC(=O)[C@H](Cc1ccc(O)cc1)NC(=O)[C@H](CC(=O)O)NC(=O)[C@H](CO)NC(=O)[C@@H](NC(=O)[C@H](Cc1ccccc1)NC(=O)[C@@H](NC(=O)CNC(=O)[C@@H](N)CCC(=O)O)[C@@H](C)O)[C@@H](C)CC)[C@@H](C)CC)C(=O)N[C@H](C(=O)N[C@@H](Cc1c[nH]cn1)C(=O)N[C@@H](CCC(N)=O)C(=O)N[C@@H](CCC(N)=O)C(=O)N[C@@H](CC(=O)O)C(=O)N[C@@H](Cc1ccccc1)C(=O)N[C@H](C(=O)N[C@@H](CC(N)=O)C(=O)N[C@@H](Cc1c[nH]c2ccccc12)C(=O)N[C@@H](CC(C)C)C(=O)N[C@@H](CC(C)C)C(=O)N[C@@H](C)C(=O)N[C@@H](CCC(N)=O)C(=O)N[C@@H](CCCCN)C(N)=O)C(C)C)[C@@H](C)CC` [AT105, [hGIP(3-30)NH2—C16/16]], the Emax at human GIP receptor [1] is 34%. The IC50 on human GIP receptor [2] (setting [3]) and on human GIP receptor [2] (setting [4]) was 522 nM each time.
For the molecule `CCCCCCCCCCCCCCCCCC(=O)NCCCC[C@H](NC(=O)[C@H](CCC(N)=O)NC(=O)[C@H](C)NC(=O)[C@H](CC(C)C)NC(=O)[C@H](CC(C)C)NC(=O)[C@H](Cc1c[nH]c2ccccc12)NC(=O)[C@H](CC(N)=O)NC(=O)[C@@H](NC(=O)[C@H](Cc1ccccc1)NC(=O)[C@H](CC(=O)O)NC(=O)[C@H](CCC(N)=O)NC(=O)[C@H](CCC(N)=O)NC(=O)[C@H](Cc1c[nH]cn1)NC(=O)[C@@H](NC(=O)[C@H](CCCCN)NC(=O)[C@H](CC(=O)O)NC(=O)[C@H](CCSC)NC(=O)[C@H](C)NC(=O)[C@@H](NC(=O)[C@H](CO)NC(=O)[C@H](Cc1ccc(O)cc1)NC(=O)[C@H](CC(=O)O)NC(=O)[C@H](CO)NC(=O)[C@@H](NC(=O)[C@H](Cc1ccccc1)NC(=O)[C@@H](N)[C@@H](C)O)[C@@H](C)CC)[C@@H](C)CC)[C@@H](C)CC)C(C)C)C(N)=O` [AT129, [hGIP(5-30)NH2—C18/30]], the Emax at human GIP receptor [1] came out at 0%. The IC50 on human GIP receptor [2] (heterologous competition binding, transiently transfected COS-7 cells expressing the human GIP receptor, log value of the nM column, read-out: Binding log (converted)) was 126000 nM.
In the case of `CCCCCCCCCCCC(=O)NCCCC[C@H](NC(=O)[C@H](CC(=O)O)NC(=O)[C@H](CCSC)NC(=O)[C@H](C)NC(=O)[C@@H](NC(=O)[C@H](CO)NC(=O)[C@H](Cc1ccc(O)cc1)NC(=O)[C@H](CC(=O)O)NC(=O)[C@H](CO)NC(=O)[C@@H](NC(=O)[C@H](Cc1ccccc1)NC(=O)[C@@H](NC(=O)CNC(=O)[C@@H](N)CCC(=O)O)[C@@H](C)O)[C@@H](C)CC)[C@@H](C)CC)C(=O)N[C@H](C(=O)N[C@@H](Cc1c[nH]cn1)C(=O)N[C@@H](CCC(N)=O)C(=O)N[C@@H](CCC(N)=O)C(=O)N[C@@H](CC(=O)O)C(=O)N[C@@H](Cc1ccccc1)C(=O)N[C@H](C(=O)N[C@@H](CC(N)=O)C(=O)N[C@@H](Cc1c[nH]c2ccccc12)C(=O)N[C@@H](CC(C)C)C(=O)N[C@@H](CC(C)C)C(=O)N[C@@H](C)C(=O)N[C@@H](CCC(N)=O)C(=O)N[C@@H](CCCCN)C(N)=O)C(C)C)[C@@H](C)CC` [AT154, [hGIP(3-30)NH2—C12/16]], on human GIP receptor [1], the “cAMP agonism Emax” value was 0%. Besides, on human GIP receptor [2] (setting [4]), the IC50 amounted to 27 nM.
`CCCCCCCCCCCCCCCCCC(=O)N[C@H](C(=O)N[C@@H](Cc1ccccc1)C(=O)N[C@H](C(=O)N[C@@H](CO)C(=O)N[C@@H](CC(=O)O)C(=O)N[C@@H](Cc1ccc(O)cc1)C(=O)N[C@@H](CO)C(=O)N[C@H](C(=O)N[C@@H](C)C(=O)N[C@@H](CCSC)C(=O)N[C@@H](CC(=O)O)C(=O)N[C@@H](CCCCN)C(=O)N[C@H](C(=O)N[C@@H](Cc1c[nH]cn1)C(=O)N[C@@H](CCC(N)=O)C(=O)N[C@@H](CCC(N)=O)C(=O)N[C@@H](CC(=O)O)C(=O)N[C@@H](Cc1ccccc1)C(=O)N[C@H](C(=O)N[C@@H](CC(N)=O)C(=O)N[C@@H](Cc1c[nH]c2ccccc12)C(=O)N[C@@H](CC(C)C)C(=O)N[C@@H](CC(C)C)C(=O)N[C@@H](C)C(=O)N[C@@H](CCC(N)=O)C(=O)N[C@@H](CCCCN)C(N)=O)C(C)C)[C@@H](C)CC)[C@@H](C)CC)[C@@H](C)CC)[C@@H](C)O` [AT127, [hGIP(5-30)NH2—C18/5]] came in with an Emax at human GIP receptor [1] of 0%. The “Fold change HSA (2%)/Casein (0.1%)” value on human GIP receptor [2] came to 0.0. Also, on human GIP receptor [2] (setting [5]), the IC50 was 1580 nM.
Taken in the same sequence, the figures for `CCCCCCCCCCCCCC(=O)NCCCC[C@H](NC(=O)[C@H](CC(=O)O)NC(=O)[C@H](CCSC)NC(=O)[C@H](C)NC(=O)[C@@H](NC(=O)[C@H](CO)NC(=O)[C@H](Cc1ccc(O)cc1)NC(=O)[C@H](CC(=O)O)NC(=O)[C@H](CO)NC(=O)[C@@H](NC(=O)[C@H](Cc1ccccc1)NC(=O)[C@@H](N)[C@@H](C)O)[C@@H](C)CC)[C@@H](C)CC)C(=O)N[C@H](C(=O)N[C@@H](Cc1c[nH]cn1)C(=O)N[C@@H](CCC(N)=O)C(=O)N[C@@H](CCC(N)=O)C(=O)N[C@@H](CC(=O)O)C(=O)N[C@@H](Cc1ccccc1)C(=O)N[C@H](C(=O)N[C@@H](CC(N)=O)C(=O)N[C@@H](Cc1c[nH]c2ccccc12)C(=O)N[C@@H](CC(C)C)C(=O)N[C@@H](CC(C)C)C(=O)N[C@@H](C)C(=O)N[C@@H](CCC(N)=O)C(=O)N[C@@H](CCCCN)C(N)=O)C(C)C)[C@@H](C)CC` [AT122, [hGIP(5-30)NH2—C14/16]] were 0%, 4.9 and 1260 nM.
`CCCCCCCCCCCCCCCCCC(=O)NCCCC[C@H](NC(=O)[C@H](CC(=O)O)NC(=O)[C@H](CCSC)NC(=O)[C@H](C)NC(=O)[C@@H](NC(=O)[C@H](CO)NC(=O)[C@H](Cc1ccc(O)cc1)NC(=O)[C@H](CC(=O)O)NC(=O)[C@H](CO)NC(=O)[C@@H](NC(=O)[C@H](Cc1ccccc1)NC(=O)[C@@H](NC(=O)CNC(=O)[C@@H](N)CCC(=O)O)[C@@H](C)O)[C@@H](C)CC)[C@@H](C)CC)C(=O)N[C@H](C(=O)N[C@@H](CCCNC(=N)N)C(=O)N[C@@H](CCC(N)=O)C(=O)N[C@@H](CCC(N)=O)C(=O)N[C@@H](CC(=O)O)C(=O)N[C@@H](Cc1ccccc1)C(=O)N[C@H](C(=O)N[C@@H](CC(N)=O)C(=O)N[C@@H](Cc1c[nH]c2ccccc12)C(=O)N[C@@H](CC(C)C)C(=O)N[C@@H](CC(C)C)C(=O)N[C@@H](C)C(=O)N[C@@H](CCC(N)=O)C(=O)N[C@@H](CCCNC(=N)N)C(N)=O)C(C)C)[C@@H](C)CC` [AT162, [hGIP(3-30)NH2[H18R; K30R]-C18/16]] displayed an Emax at human GIP receptor [1] of 44%. Further, the “Fold change in affinity, IC50 (plus HSA)/IC50 (minus HSA)” value at human GIP receptor [2] (presence vs absence of 2% HSA, proxy for albumin binding) was determined as 5.6 fold.
Turning to `CCCCCCCCCCCC(=O)N[C@@H](CCC(=O)O)C(=O)NCC(=O)N[C@H](C(=O)N[C@@H](Cc1ccccc1)C(=O)N[C@H](C(=O)N[C@@H](CO)C(=O)N[C@@H](CC(=O)O)C(=O)N[C@@H](Cc1ccc(O)cc1)C(=O)N[C@@H](CO)C(=O)N[C@H](C(=O)N[C@@H](C)C(=O)N[C@@H](CCSC)C(=O)N[C@@H](CC(=O)O)C(=O)N[C@@H](CCCCN)C(=O)N[C@H](C(=O)N[C@@H](Cc1c[nH]cn1)C(=O)N[C@@H](CCC(N)=O)C(=O)N[C@@H](CCC(N)=O)C(=O)N[C@@H](CC(=O)O)C(=O)N[C@@H](Cc1ccccc1)C(=O)N[C@H](C(=O)N[C@@H](CC(N)=O)C(=O)N[C@@H](Cc1c[nH]c2ccccc12)C(=O)N[C@@H](CC(C)C)C(=O)N[C@@H](CC(C)C)C(=O)N[C@@H](C)C(=O)N[C@@H](CCC(N)=O)C(=O)N[C@@H](CCCCN)C(N)=O)C(C)C)[C@@H](C)CC)[C@@H](C)CC)[C@@H](C)CC)[C@@H](C)O` [AT101, [hGIP(3-30)NH2—C12/3]], on human GIP receptor [1] (read-out: cAMP agonism nM (EC50)), the EC50 was determined as 0.7 nM. Also, the “cAMP agonism Emax” value on human GIP receptor [1] stood at 62%. Besides, the IC50 at human GIP receptor [2] (setting [3]) and at human GIP receptor [2] (setting [4]) was 9.9 nM throughout. Further, the “Binding fold (paired)” value on human GIP receptor [2] (fold decrease in affinity compared to GIP(3-30)NH2, Table 3b) turned out to be 0.7 fold.
In the case of `CC[C@H](C)[C@H](NC(=O)[C@H](CO)NC(=O)[C@H](Cc1ccc(O)cc1)NC(=O)[C@H](CC(=O)O)NC(=O)[C@H](CO)NC(=O)[C@@H](NC(=O)[C@H](Cc1ccccc1)NC(=O)[C@@H](N)[C@@H](C)O)[C@@H](C)CC)C(=O)N[C@@H](C)C(=O)N[C@@H](CCSC)C(=O)N[C@@H](CC(=O)O)C(=O)N[C@@H](CCCCNC(=O)CCCCCCCCCCCCCCCCC(=O)O)C(=O)N[C@H](C(=O)N[C@@H](Cc1c[nH]cn1)C(=O)N[C@@H](CCC(N)=O)C(=O)N[C@@H](CCC(N)=O)C(=O)N[C@@H](CC(=O)O)C(=O)N[C@@H](Cc1ccccc1)C(=O)N[C@H](C(=O)N[C@@H](CC(N)=O)C(=O)N[C@@H](Cc1c[nH]c2ccccc12)C(=O)N[C@@H](CC(C)C)C(=O)N[C@@H](CC(C)C)C(=O)N[C@@H](C)C(=O)N[C@@H](CCC(N)=O)C(=O)N[C@@H](CCCCN)C(N)=O)C(C)C)[C@@H](C)CC` [AT141, [hGIP(5-30)NH2—C18diacid/16]], the Emax at human GIP receptor [1] was 0%. Besides, the “Fold change HSA (2%)/Casein (0.1%)” value at human GIP receptor [2] came to 6.5. The IC50 was 2000 nM at human GIP receptor [2] (setting [5]) and 1900 nM at human GIP receptor [2] (setting [4]).
